Reference: PMC11184611, “Development of Nontoxic Peptides for Lipopolysaccharide Neutralization and Sepsis Treatment” (ACS Pharmacology & Translational Science, 2024)
Like-named read-outs stand apart in the source and are kept apart here. No end group written: not given here.

Key:
S. aureus (ATCC 6538P) = assay type: cell-based, Staphylococcus aureus
Protocol: (§1) The antibacterial activity of the peptides was examined in sterile 96-well plates (Nunc 96-well microtiter plates) in a final volume of 100 μL, as follows. Aliquots (50 μL) of a suspension containing bacteria at a concentration of 10^6 colony-forming units/mL in culture medium (LB medium) were added to 50 μL of peptide serially diluted in culture medium (100–0.78 μM). Inhibition of growth was determined by the eye after an incubation of 18–20 h at 37 °C. Antibacterial activities were expressed as the minimal inhibitory concentration (MIC), the concentration at which 100% inhibition of growth was observed after 18–20 h of incubation. In these experiments, we have tested the effect of the peptides on E. coli (ATCC 25922) and Staphylococcus aureus (ATCC 6538P) as representatives of both Gram-negative and Gram-positive bacteria, respectively.

[1] = tested on: RAW264.7 murine macrophages; assay type: cell-based
Protocol: All in vitro assays were performed on RAW264.7 murine macrophages (ATCC TIB-71). Cells were grown in Dulbecco’s modified eagle medium (DMEM) supplemented with 10% fetal bovine serum (FBS), L-glutamine, sodium pyruvate, nonessential amino acids, and antibiotics (Biological Industries, Beit Haemek, Israel). The incubator was set on 37 °C with a humidified atmosphere containing 5% CO2.
One ×10^4 cells per well were grown overnight on a 96-well plate at 37 °C with a humidified atmosphere containing 5% CO2. The following day, the media were replaced with 90 μL fresh culture medium and 10 μL solution buffer containing different concentrations of the different peptides. Peptides were serially diluted in culture medium to concentration ranging from 100 to 0.78 μM. The cells were then incubated for 2 h before adding to each well 50 μL of […] (XTT) reaction solution (Biological Industries). Cell viability was determined as described previously.[52],[54] The LC50 (the concentration at which 50% of the cells die) for each peptide was obtained from the dose-dependent cell viability curves.

E. coli (ATCC 25922) = assay type: cell-based
Protocol: as §1

C57BL/6 mice = assay: In vivo toxicity, i.p. injection; details: 100 mg/kg i.p. in 400 μL saline, highest dose tested, female C57BL/6 mice, n = 2, observed 7 days
Protocol: Toxicity was tested by i.p. injection of K2(AL)8K2 (100 mg/kg in 400 μL saline) in female C57BL/6 mice (n = 2). Mice were continuously observed for 1 h immediately following injection and once per day for 7 days. To examine the effect of our peptide on acute septic shock driven by LPS hyper-activation of TLR4, we have used murine models as described before.[55],[56] Briefly, 12 weeks old C57BL/6 female mice were treated with 100 ng of LPS injected i.p. in a saline solution (200 μL, pH 6.5) containing 200 mg/mL of D-galactosamine (Calbiochem). Treated mice received one i.p. injection of 10 mg/kg peptide dissolved in saline (200 μL) followed by an injection of LPS. In the second model, heat-killed bacteria were used to induce a lethal septic shock. E. coli cells were grown to a mid-log phase (optical density = 0.5) at 37 °C, cooled on ice, and centrifuged at 1200g for 10 min at 4 °C. The cells were resuspended in saline for a concentration of 2 × 10^9 cells in 200 μL and heated at 95 °C for 30 min. Each animal received an i.p. injection of 2 × 10^9 cells in 200 μL saline followed by an injection of 10 mg/kg peptide dissolved in saline (200 μL). Animals were monitored for survival and signs of sepsis for the next 14 days after LPS injection. For LPS-driven septic shock, n = 8. For heat-killed bacteria, n = 11. […]

[2] = XTT, cells incubated 2 h with peptide, 100 to 0.78 μM
[3] = 100% inhibition of growth, by eye, after 18–20 h at 37 °C, LB medium, peptide 100–0.78 μM

Row | Substance | MIC S. aureus (ATCC 6538P) (S. aureus (ATCC 6538P)) [µM] | toxicity to macrophages [1] | LC50 macrophages RAW 264.7 ([1]; 2 h) [µM] | MIC E. coli (ATCC 25922) (E. coli (ATCC 25922); ATCC 25922) [µM] | toxicity in vivo (C57BL/6 mice) | cytotoxicity ([1]; RAW264.7) | LC50 macrophages RAW 264.7 [1, 2] [µM] | toxicity to macrophages ([1]; summary table, yes/no) | MIC S. aureus (ATCC 6538P) (S. aureus (ATCC 6538P); [3]) [µM] | MIC E. coli (ATCC 25922) (E. coli (ATCC 25922); [3]) [µM]
1 | KKALALALALALAKK-NH2 [K2(AL)5AK2] | >100 | no | >100 | >100 |  |  |  |  |  | 
2 | KKALALALALALALALALKK-NH2 [K2(AL)8K2] | >100 | no | >100 | >100 | no lasting adverse effects were observed |  |  |  |  | 
3 | KKALALALKK-NH2 [K2(AL)3K2] | >100 | no | >100 | >100 |  |  |  |  |  | 
4 | KALALALALALALALALALK-NH2 [K(AL)9K] | >100 | no | >100 | >100 |  |  |  |  |  | 
5 | KKAVAVAVAVAVAVAVAVKK-NH2 [K2(AV)8K2] | >100 |  | 90 | >100 |  |  |  |  |  | 
6 | KALALALKALALKALALALK-NH2 [K(AL)3K(AL)2K(AL)3K] | 12.5 |  |  | 25 |  | moderate toxicity | 25 | yes |  | 
7 | LALALALALALALALALALK-NH2 [L(AL)9K] |  |  |  |  |  |  | >100 | no | >100 | >100
8 | ALALALALALALALALALKK-NH2 [(AL)9K2] | >100 | no | >100 | >100 |  |  |  |  |  | 
